Experimental data published in PubChem BioAssay (NCI).
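In this assay, cells in 96-well plates receive the compound at five concentrations for 48 hours. Endpoints are linearly interpolated between the surrounding concentrations. GI50 marks 50% less growth. TGI marks complete inhibition of growth.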

Key:
Assay in all cases: growth of human tumour cells (NCI), 48 h
MDA-MB-231 breast = tested on: MDA-MB-231 breast
UACC-257 melanoma = tested on: UACC-257 melanoma
A549 NSCLC = tested on: A549 NSCLC
SW-620 colon = tested on: SW-620 colon
HOP-92 NSCLC = tested on: HOP-92 NSCLC
HS 578T breast = tested on: HS 578T breast
SF-295 CNS = tested on: SF-295 CNS
NCI-H460 lung = tested on: NCI-H460 lung
CAKI-1 renal = tested on: CAKI-1 renal
BT-549 breast = tested on: BT-549 breast

SMILES | GI50 (MDA-MB-231 breast) [µM] | TGI (MDA-MB-231 breast) [µM] | GI50 (UACC-257 melanoma) [µM] | TGI (UACC-257 melanoma) [µM] | GI50 (A549 NSCLC) [µM] | TGI (A549 NSCLC) [µM] | GI50 (SW-620 colon) [µM] | TGI (SW-620 colon) [µM] | GI50 (HOP-92 NSCLC) [µM] | TGI (HOP-92 NSCLC) [µM] | GI50 (HS 578T breast) [µM] | TGI (HS 578T breast) [µM] | GI50 (SF-295 CNS) [µM] | TGI (SF-295 CNS) [µM] | GI50 (NCI-H460 lung) [µM] | TGI (NCI-H460 lung) [µM] | GI50 (CAKI-1 renal) [µM] | TGI (CAKI-1 renal) [µM] | GI50 (BT-549 breast) [µM] | TGI (BT-549 breast) [µM]
C[C@H](CCOc1cccc(CC(=O)O)c1)N(Cc1cccc(C(F)(F)F)c1Cl)CC(c1ccccc1)c1ccccc1 | 10.5 | 25.1 | 10.2 | 25.2 | 3.94 | 18.9 | 5.28 | 20.7 | 3.21 | 16.5 | 3.79 | 20.7 | 4.44 | 18.6 | 3.9 | 13.6 | 5.79 | 18.2 | 5.39 | 20
CN(C)CCN1CCC(Cc2ccccc2)CC1 | > 80 | > 80 | > 80 | > 80 | > 80 | > 80 | > 80 | > 80 | 41.4 | > 80 | 44.1 | > 80 | > 80 | > 80 | > 80 | > 80 | > 80 | > 80 | > 80 | > 80
COc1ccc(/C=C\c2cc(OC)c(OC)c(OC)c2)cc1OCC(=O)O | – | > 92.7 | – | > 100 | – | > 100 | – | > 100 | – | 55.7 | – | 9.25 | – | 35.8 | – | > 55.3 | – | > 100 | – | > 100
NC(=O)c1cc(I)ccc1NC(=O)/C=C/c1ccccc1 | 0.769 | > 67.2 | 14.3 | 53.3 | 1.33 | > 100 | 0.48 | > 100 | 17 | 97.7 | 0.364 | 15.4 | 0.326 | 3.38 | 0.417 | 3.44 | 0.652 | 24.8 | 2.39 | 27.5
COc1nc(=O)n(C2C=CC(=O)O2)cc1F (stereo not given) | 12.7 | 25.9 | 11.6 | 31.4 | 25.9 | 87.3 | 4.19 | 15.8 | 1.85 | 11.7 | 13.4 | 40.8 | 22.9 | 66.1 | 12.5 | 28.7 | 2.67 | 8.7 | 8.29 | 24.1
CCOC(=O)Nc1c(C)nc2ccccn12 | > 100 | > 100 | > 100 | > 100 | > 100 | > 100 | > 100 | > 100 | > 100 | > 100 | > 100 | > 100 | > 100 | > 100 | > 100 | > 100 | > 100 | > 100 | > 100 | > 100
